Test system: ovarian cancers
Assay: Kaplan Meier overall survival on platinum therapy against gene copy number at 5q1x and 3q2x (control analysis)
Format: in vivo
Details: MAP3K1, IL6ST, PIK3R1 copy number; FIGS. 3F-H
From the text: We then asked whether loss of the PARP15 and PARP8 would also correlate with response or lack of response to PARPi therapy. For this analysis we looked at DNA copy number determined using next-generation sequencing of a panel of 592 genes. See Example 1. […] Without being bound by theory, loss at a one gene is highly correlated with loss of neighboring genes. As a control, we repeated the analysis shown in FIGS. 3C-E but used response to platinum compounds instead of PARPi, specifically carboplatin. […] As a control, we repeated the analysis shown in FIGS. 3I-K but used response to platinum compounds instead of PARPi.

## N.N.O=C([O-])C1(C(=O)[O-])CCC1.[Pt+2] [carboplatin]
  response to platinum therapy (overall survival) by gene copy number at 5q1x: loss of copy number at 5q1x was correlated of positive benefit of platinum therapy

Source: US20240060139A1, “TREATMENT RESPONSE SIGNATURES” (Caris MPI, Inc., priority 2020, published 2024)
